We go through three compounds from patent publication US9056814B2, “Polymorphic form of a calcimimetic compound” (LEO PHARMA A/S, priority 2010, dated 2015).

Format in all cases: physicochemical
Series [1] in a line: Stress stability test for solid state transformation. The conditions noted are these: 60° C., 60° C./75% relative humidity and 80° C./75% relative humidity; 4 weeks. As to the method: Polymorph Form C, Form X and mixtures of the two polymorphic forms C+X have all been tested at different conditions of temperature and relative humidity for signs of solid state transformation. The stress stability test was carried out at three sets of conditions: 60° C., 60° C./75% relative humidity and 80° C./75% relative humidity, and samples were analyzed after 1, 2 and 4 weeks, ie. after 7, 14 and 28 days.
One 1.8 ml amber screw top vial (27267-U, Supelco) containing between 50 and 100 mg {4-[(1R,3S)-3-((R)-1-Naphthalen-1-yl-ethylamino)-cyclopentyl]-phenoxy}-acetic acid was tested per individual set of conditions. The vials to be tested at 60° C. were closed with a PTFE lined black polypropylene solid cap (27416, Supelco) and placed in a thermostated heating cabinet. The vials to be tested at 60° C./75% relative humidity and 80° C./75% relative humidity were placed uncapped in a desiccator containing a saturated NaCl solution. The desiccator was subsequently placed in a thermostated heating cabinet.
The samples were analyzed at 1, 2 and 4 weeks for • 1. Visual appearance • 2. HPLC assay and impurities • 3. Polymorph characterization

Series [2] in a line: Competitive slurrying experiments (XRPD follow-up). As to conditions: for Polymorphic stability/conversion in competitive slurrying: MeOH suspension 30 mg/mL, 14 days, 5° C., room temperature and reflux (65° C.). As to the method: The suspensions at 5° C. and r.t. were prepared in 4 mL vials with caps and equipped with a small magnetic stirrer bar. The suspensions were stirred at approximately 500 rpm. for two weeks. The suspensions prepared at high temperature were prepared in 10 mL Erlenmeyer flask equipped with a magnetic stirrer bar and reflux condenser.
Samples of the suspensions were taken at time=0, 1 day, 7 days and 14 days and investigated by XRPD.

Series [3] can be described thus: Thermo gravimetric analysis (TGA). As to conditions: Graph 4a (Form C sample), ±2° C. As to the method: Thermo gravimetric analysis (TGA): TGA experiments were conducted using a Perkin Elmer Pyris 1 TGA instrument. About 10-20 mg of sample was loaded into a ceramic pan for the measurements. The sample temperature was ramped from 25 to 350° C. at 10° C./min. Nitrogen was used as the purge gas at a flow rate of 40 mL/min.

A short description of series [4]: Transition temperature of the enantiotropic polymorphs from melting enthalpy and melting points. The conditions noted are these: estimated from melting enthalpy and melting points of Form C and Form X. As to the method: From careful measurements of melting enthalpy and melting points of both forms, the transition temperature has been estimated to lie between 120 to 145° C.
Differential scanning calorimetry (DSC): DSC experiments were carried out using a Perkin Elmer DSC8500 system. About 0.5-3 mg of sample was used for the measurements. An aluminium pan was used for the analysis and was sealed by applying pressure by hand and pushing each part of the pan together. The temperature was ramped from −60 to 270° C. at 20° C./min. Nitrogen was used as the purge gas with a flow rate of 20 mL/min.

A short description of series [5]: Aqueous solubility as a function of pH. As to conditions: room temperature, conclusion from Table 6. As to the method: The aqueous solubility of Form C and Form X was determined as a function of pH at 25° C. in 0.1N HCl (pH 1.0) and in Sorensen phosphate buffers at pH 2.0, 4.0, 6.0 and 8.0. For each pH value two individual determinations were made. Form C or Form X was weighed out (11 mg for pH 1, 4 mg for pH 2-8) in scintillation vials and 4 ml 0.1N HCl or buffer was added. The vials were shaken for 24 hours at 25° C. After 24 hours it was checked that the vial still contained undissolved material. The suspensions were filtered through a 0.45 μm filter, which was first saturated with app. 0.5 ml filtrate. The resulting filtrates were diluted and analyzed by HPLC vs. a standard curve.

As for `C[C@@H](NC1CCC(c2ccc(OCC(=O)O)cc2)C1)c1cccc2ccccc12` (stereo in doubt) [Form C, {4-[(1R,3S)-3-((R)-1-Naphthalen-1-yl-ethylamino)-cyclopentyl]-phenoxy}-acetic acid], the “4 week stress stability test, solid state transformation” value (“4 week stress stability test” below) in series [1] is “without any solid state transformation”. The “Polymorphic stability/conversion in competitive slurrying” value (“Polymorphic stability/conversion” below) in series [2] is listed as “stable at all three temperatures”.
In the case of `C[C@@H](NC1CCC(c2ccc(OCC(=O)O)cc2)C1)c1cccc2ccccc12` (stereo in doubt) [{4-[(1R,3S)-3-((R)-1-Naphthalen-1-yl-ethylamino)-cyclopentyl]-phenoxy}-acetic acid], the “Temperature below which stable towards degradation (TGA trail)” value in series [3] is “below 255 °C”. In addition, the “Transition temperature (estimated)” value in series [4] is 120 to 145 °C. Besides, the “4 week stress stability test” value in series [1] is “without any solid state transformation”. Besides, in series [2] (listed as mixtures of Form X+C), the “Polymorphic stability/conversion” value is “convert to pure Form C at all three temperatures”. Also, in series [2] (lower bound from competitive slurrying of Form C and Form X), the “Transition temperature at which the two polymorphs are equally stable” value was “above 110 °C”.
With `C[C@@H](NC1CCC(c2ccc(OCC(=O)O)cc2)C1)c1cccc2ccccc12` (stereo in doubt) [Form X, {4-[(1R,3S)-3-((R)-1-Naphthalen-1-yl-ethylamino)-cyclopentyl]-phenoxy}-acetic acid], in series [1], the “4 week stress stability test” value is given as “without any solid state transformation”. Moreover, the “Solubility of Form X relative to Form C” value in series [5] was “higher compared to Form C”. In addition, in series [2], the “Polymorphic stability/conversion” value was “convert to pure Form C at all three temperatures”. For the same compound, the “Polymorphic conversion in competitive slurrying” value in series [2] (competitive slurrying at 110° C.) is reported as “transformation of Form X to Form C”.
